From PubChem BioAssay AID2060511 (Molecular Pharmacology Branch, DTP, NCI, 2025)

System: 422866-222-R5-J1-PDC spheroids with HUVEC/MSC, viability
Assay: Anticancer human tumor 422866-222-R5-J1-PDC patient-derived pancreatic adenocarcinoma cell line growth inhibition [GQUAD]
Conditions: for IC50: curve of first compound; for viability, T/C: stronger effect = lower value
Summary of the method: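 Multi-cell-type spheroids of tumor cells with HUVEC and mesenchymal stem cells, treated with drug combinations. Concentrations descend in half-log steps from near clinical Cmax, or from 10 microM where Cmax is unknown; viability read-out.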

[1] = second compound 0.0316 µM, first compound 0.0316 µM
[2] = second compound 0.0316 µM, first compound 0.1 µM
[3] = second compound 0.0316 µM, first compound 0.316 µM
[4] = second compound 0.0316 µM, first compound 1 µM
[5] = second compound 0.0316 µM, first compound 3.16 µM
[6] = second compound 0.0316 µM, first compound 10 µM
[7] = second compound 0.1 µM, first compound 0.0316 µM
[8] = second compound 0.1 µM, first compound 0.1 µM
[9] = second compound 0.1 µM, first compound 0.316 µM
[10] = second compound 0.1 µM, first compound 1 µM
[11] = second compound 0.1 µM, first compound 3.16 µM
[12] = second compound 0.1 µM, first compound 10 µM
[13] = second compound 0.316 µM, first compound 0.0316 µM
[14] = second compound 0.316 µM, first compound 0.1 µM
[15] = second compound 0.316 µM, first compound 0.316 µM
[16] = second compound 0.316 µM, first compound 1 µM
[17] = second compound 0.316 µM, first compound 3.16 µM
[18] = second compound 0.316 µM, first compound 10 µM
[19] = second compound 1 µM, first compound 0.0316 µM
[20] = second compound 1 µM, first compound 0.1 µM
[21] = second compound 1 µM, first compound 0.316 µM
[22] = second compound 1 µM, first compound 1 µM
[23] = second compound 1 µM, first compound 3.16 µM
[24] = second compound 1 µM, first compound 10 µM
[25] = second compound 3.16 µM, first compound 0.0316 µM
[26] = second compound 3.16 µM, first compound 0.1 µM
[27] = second compound 3.16 µM, first compound 0.316 µM
[28] = second compound 3.16 µM, first compound 1 µM
[29] = second compound 3.16 µM, first compound 3.16 µM
[30] = second compound 3.16 µM, first compound 10 µM
[31] = second compound 10 µM, first compound 0.0316 µM
[32] = second compound 10 µM, first compound 0.1 µM
[33] = second compound 10 µM, first compound 0.316 µM
[34] = second compound 10 µM, first compound 1 µM
[35] = second compound 10 µM, first compound 3.16 µM
[36] = second compound 10 µM, first compound 10 µM
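Note: spheroids exposed to compounds for seven days before reading.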
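Throughout, for viability, T/C: percent viability relative to DMSO vehicle control taken as 100%.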

Question: Which results are given for `C=CCn1c(=O)c2cnc(Nc3ccc(N4CCN(C)CC4)cc3)nc2n1-c1cccc(C(C)(C)O)n1` + Cc1cnc(CNC(=O)c2c(=O)c3ccc(N4CCCN(C)CC4)nc3n3c2sc2ccccc23)cn1?
Answer: IC50 (second compound 0.0316 µM): 310 nM; IC50 (second compound 0.1 µM): 545 nM; IC50 (second compound 0.316 µM): 1320 nM; IC50 (second compound 1 µM): 2270 nM; IC50 (second compound 3.16 µM): 3240 nM; IC50 (second compound 10 µM): 2780 nM; viability, T/C [1]: 86.8%; viability, T/C [2]: 70%; viability, T/C [3]: 51.6%; viability, T/C [4]: 35.2%; viability, T/C [5]: 29.1%; viability, T/C [6]: 34.2%; viability, T/C [7]: 89.2%; viability, T/C [8]: 71.9%; viability, T/C [9]: 54.1%; viability, T/C [10]: 45.5%; viability, T/C [11]: 38.5%; viability, T/C [12]: 36.7%; viability, T/C [13]: 85%; viability, T/C [14]: 80.2%; viability, T/C [15]: 63.5%; viability, T/C [16]: 52.4%; viability, T/C [17]: 43.6%; viability, T/C [18]: 34.2%; viability, T/C [19]: 74.7%; viability, T/C [20]: 74.2%; viability, T/C [21]: 64.8%; viability, T/C [22]: 57.3%; viability, T/C [23]: 46.2%; viability, T/C [24]: 44.8%; viability, T/C [25]: 82.8%; viability, T/C [26]: 64.5%; viability, T/C [27]: 65.5%; viability, T/C [28]: 62.4%; viability, T/C [29]: 51.4%; viability, T/C [30]: 39.6%; viability, T/C [31]: 72.9%; viability, T/C [32]: 73.4%; viability, T/C [33]: 70.8%; viability, T/C [34]: 60.8%; viability, T/C [35]: 49%; viability, T/C [36]: 42.3%

Question: For `Cc1cccc(N(C)C(=O)C2C(O)CCN2c2nc(C)cc(C(F)(F)F)c2C#N)c1` (centres undefined) + Cc1[nH]c2ccc(F)cc2c1-c1nc2c3cccnc3c3ncccc3c2[nH]1, which IC50 (second compound 0.0316 µM) is on record?
Answer: The IC50 was greater than 10000 nM.

Question: And the IC50 (second compound 0.1 µM)?
Answer: The IC50 was greater than 10000 nM.

Question: And the IC50 (second compound 0.316 µM)?
Answer: Its IC50 is greater than 10000 nM.

Question: What about the IC50 (second compound 1 µM) of the same compound?
Answer: The IC50 was greater than 10000 nM.

Question: What about the IC50 (second compound 3.16 µM) of the same compound?
Answer: Its IC50 is greater than 10000 nM.

Question: What about the IC50 (second compound 10 µM) of the same compound?
Answer: The IC50 was greater than 10000 nM.

Question: What about the viability, T/C [1] of the same compound?
Answer: The viability, T/C was 107%.

Question: What about the viability, T/C [2] of the same compound?
Answer: Its viability, T/C is 95.2%.

Question: What about the viability, T/C [3] of the same compound?
Answer: The viability, T/C was 102%.

Question: What about the viability, T/C [4] of the same compound?
Answer: Its viability, T/C is 79.5%.

Question: And the viability, T/C [5]?
Answer: Its viability, T/C is 116%.

Question: And the viability, T/C [6]?
Answer: Its viability, T/C is 108%.

Question: And the viability, T/C [7]?
Answer: Its viability, T/C is 88.8%.

Question: And the viability, T/C [8]?
Answer: Its viability, T/C is 92.2%.

Question: What about the viability, T/C [9] of the same compound?
Answer: Its viability, T/C is 116%.

Question: What about the viability, T/C [10] of the same compound?
Answer: The viability, T/C was 82.8%.

Question: What about the viability, T/C [11] of the same compound?
Answer: Its viability, T/C is 99.9%.

Question: What about the viability, T/C [12] of the same compound?
Answer: Its viability, T/C is 107%.

Question: What about the viability, T/C [13] of the same compound?
Answer: Its viability, T/C is 89.9%.

Question: What about the viability, T/C [14] of the same compound?
Answer: Its viability, T/C is 92.9%.

Question: And the viability, T/C [15]?
Answer: Its viability, T/C is 97.4%.

Question: And the viability, T/C [16]?
Answer: The viability, T/C was 98.3%.

Question: What about the viability, T/C [17] of the same compound?
Answer: The viability, T/C was 115%.

Question: And the viability, T/C [18]?
Answer: The viability, T/C was 114%.

Question: And the viability, T/C [19]?
Answer: Its viability, T/C is 92.7%.

Question: What about the viability, T/C [20] of the same compound?
Answer: The viability, T/C was 101%.

Question: And the viability, T/C [21]?
Answer: Its viability, T/C is 111%.

Question: What about the viability, T/C [22] of the same compound?
Answer: Its viability, T/C is 103%.

Question: And the viability, T/C [23]?
Answer: The viability, T/C was 120%.

Question: And the viability, T/C [24]?
Answer: Its viability, T/C is 93.1%.

Question: And the viability, T/C [25]?
Answer: The viability, T/C was 80.2%.

Question: What about the viability, T/C [26] of the same compound?
Answer: The viability, T/C was 96.1%.

Question: And the viability, T/C [27]?
Answer: The viability, T/C was 89.6%.

Question: And the viability, T/C [28]?
Answer: Its viability, T/C is 84.1%.

Question: And the viability, T/C [29]?
Answer: The viability, T/C was 104%.

Question: What about the viability, T/C [30] of the same compound?
Answer: The viability, T/C was 96.4%.

Question: What about the viability, T/C [31] of the same compound?
Answer: Its viability, T/C is 82.5%.

Question: And the viability, T/C [32]?
Answer: Its viability, T/C is 86.8%.

Question: And the viability, T/C [33]?
Answer: The viability, T/C was 100%.

Question: What about the viability, T/C [34] of the same compound?
Answer: The viability, T/C was 86.9%.

Question: What about the viability, T/C [35] of the same compound?
Answer: Its viability, T/C is 90.1%.

Question: And the viability, T/C [36]?
Answer: The viability, T/C was 96.9%.
